Test results as given in the NIST ThermoML archive (doi:10.1021/acs.jced.5b00154).
± gives the expanded uncertainty stated by the source.

Settings: 101.33 kPa, Liquid, Vibrating tube method

mass density (278.15 K): 1105.53 ± 0.08 kg/m3 | mass density (288.15 K): 1105.77 ± 0.08 kg/m3 | mass density (298.15 K): 1104.36 ± 0.079 kg/m3 | mass density (308.15 K): 1101.63 ± 0.079 kg/m3 | mass density (318.15 K): 1097.84 ± 0.078 kg/m3
SMILES: [2H]O[2H] [water-d2]
